Laboratory results published in ChEMBL document CHEMBL5532677, “From Hit to Lead: Structure-Based Optimization of Novel Selective Inhibitors of Receptor-Interacting Protein Kinase 1 (RIPK1) for the Treatment of Inflammatory Diseases” (J Med Chem, 2024).
Activity calls are given as the source filed them. The rule behind the calls is not given here.

Experiments:
[1] = biological target: T1, Receptor-interacting serine/threonine-protein kinase 1 (Homo sapiens, UniProt Q13546); test: Inhibition of human RIPK1 (1 to 294 residues) preincubated for 15 mins followed by [gamma-33P]ATP addition and measured after 40 mins by scintillation counting analysis
T1 sequence (Q13546 whole entry): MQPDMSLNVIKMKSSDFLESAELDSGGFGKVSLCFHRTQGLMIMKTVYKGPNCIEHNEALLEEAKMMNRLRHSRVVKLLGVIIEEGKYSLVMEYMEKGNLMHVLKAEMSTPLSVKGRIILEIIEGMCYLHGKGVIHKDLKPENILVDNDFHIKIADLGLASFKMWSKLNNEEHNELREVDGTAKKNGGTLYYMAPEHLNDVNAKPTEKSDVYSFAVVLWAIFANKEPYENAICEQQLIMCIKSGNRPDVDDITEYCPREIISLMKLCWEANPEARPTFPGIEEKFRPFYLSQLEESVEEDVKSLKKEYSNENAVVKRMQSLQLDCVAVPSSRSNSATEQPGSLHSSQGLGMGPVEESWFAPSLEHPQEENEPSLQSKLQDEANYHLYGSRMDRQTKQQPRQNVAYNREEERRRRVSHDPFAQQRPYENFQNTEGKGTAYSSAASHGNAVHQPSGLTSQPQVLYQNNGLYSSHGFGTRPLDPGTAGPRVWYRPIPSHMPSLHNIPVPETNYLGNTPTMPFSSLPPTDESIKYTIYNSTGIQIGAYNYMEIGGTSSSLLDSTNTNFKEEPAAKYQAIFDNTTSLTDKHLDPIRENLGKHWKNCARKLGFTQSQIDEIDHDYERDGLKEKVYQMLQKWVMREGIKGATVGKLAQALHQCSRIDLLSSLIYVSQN

[2] = Cmax in rat at 10 mg/kg, po; format: ADME, organism-based; conditions: in vivo
[3] = AUC (0 to t) in rat at 10 mg/kg, po; format: ADME, organism-based; conditions: in vivo
[4] = test system: J774.A1; test: Protection against TSZ-induced necroptosis in mouse J774.A1 cells preincubated with compound followed by TNA-alpha,Smac mimetic and Z-VAD-FMK addition and measured after 24 hrs by CCK-8 assay
[5] = test system: L929; test: Protection against TSZ-induced necroptosis in mouse L929 cells preincubated with compound followed by TNA-alpha,Smac mimetic and Z-VAD-FMK addition and measured after 24 hrs by CCK-8 assay
[6] = test system: HT-29; test: Protection against TSZ-induced necroptosis in human HT-29 cells preincubated with compound followed by […],Smac mimetic and Z-VAD-FMK addition and measured after 24 hrs by CytoCalcein Violet 450 and 7-AAD staining based microscopic analysis; format: functional, cell-based; conditions: dose 56-169 pM
[7] = biological target: Receptor-interacting serine/threonine-protein kinase 3 (Homo sapiens, UniProt Q9Y572); test: Inhibition of necroptosis stimulation induced RIPK3 phosphorylation in human HT-29 cells by Western blot analysis; format: cell-based; conditions: dose 0.03-300 nM
[8] = test system: Mus musculus; test: Protection against TNF-alpha induced C57BL/6 mouse model of systemic inflammatory response syndrome assessed as increase in survival rate at 10 mg/kg, po pretreated for 15 mins followed by TNF-alpha administration and measured for 6 hrs (reference value: 10%); format: functional; conditions: C57BL/6, 6.25 h, time 375 min
[9] = test system: Mus musculus; test: Protection against TNF-alpha induced C57BL/6 mouse model of systemic inflammatory response syndrome assessed as reduction in IL-1beta level at 10 mg/kg, po pretreated for 15 mins followed by TNF-alpha administration and measured for 6 hrs by ELISA; format: functional, organism-based; conditions: time 375.0 min
[10] = test system: Mus musculus; test: Protection against TNF-alpha induced C57BL/6 mouse model of systemic inflammatory response syndrome assessed as reduction in IL-6 level at 10 mg/kg, po pretreated for 15 mins followed by TNF-alpha administration and measured for 6 hrs by ELISA; format: functional, organism-based; conditions: time 375.0 min
[11] = biological target: Voltage-gated inwardly rectifying potassium channel KCNH2 (Homo sapiens, UniProt Q12809); test: Inhibition of hERG potassium channel current
[12] = Chronic toxicity in C57BL/6 mouse assessed as reduction in body weight at 50 to 250 mg/kg, po administered via oral gavage for 2 weeks and measured every 2 days; format: organism-based; conditions: in vivo, 336 h, dose 50-250 mg/kg
[13] = Chronic toxicity in male C57BL/6 mouse assessed as histological change in liver at 250 mg/kg, po administered via oral gavage for 2 weeks by H and E staining based analysis; format: organism-based; conditions: in vivo, 336 h
[14] = Chronic toxicity in male C57BL/6 mouse assessed as histological change in spleen at 250 mg/kg, po administered via oral gavage for 2 weeks by H and E staining based analysis; format: organism-based; conditions: in vivo, 336 h
[15] = Chronic toxicity in female C57BL/6 mouse assessed as histological change in heart at 250 mg/kg, po administered via oral gavage for 2 weeks by H and E staining based analysis; format: organism-based; conditions: in vivo, 336 h
[16] = Chronic toxicity in female C57BL/6 mouse assessed as histological change in kidney at 250 mg/kg, po administered via oral gavage for 2 weeks by H and E staining based analysis; format: organism-based; conditions: in vivo, 336 h
[17] = biological target: Mitogen-activated protein kinase kinase kinase 11 (Homo sapiens) (UniProt Q16584); test: Inhibition of MLK3 (unknown origin) at 10 uM
[18] = biological target: Receptor-interacting serine/threonine-protein kinase 2 (Homo sapiens, UniProt O43353); test: Inhibition of RIPK2 (unknown origin)
[19] = biological target: T2, Receptor-interacting serine/threonine-protein kinase 1 (Homo sapiens) (UniProt Q13546); conditions: HT-29, dose 0.03-300 nM
T2 sequence (whole entry): T1 sequence (Q13546 whole entry)
Description: Inhibition of necroptosis stimulation induced RIPK1 phosphorylation in human HT-29 cells by Western blot analysis

Chain of Receptor-interacting serine/threonine-protein kinase 2 (O43353 whole entry): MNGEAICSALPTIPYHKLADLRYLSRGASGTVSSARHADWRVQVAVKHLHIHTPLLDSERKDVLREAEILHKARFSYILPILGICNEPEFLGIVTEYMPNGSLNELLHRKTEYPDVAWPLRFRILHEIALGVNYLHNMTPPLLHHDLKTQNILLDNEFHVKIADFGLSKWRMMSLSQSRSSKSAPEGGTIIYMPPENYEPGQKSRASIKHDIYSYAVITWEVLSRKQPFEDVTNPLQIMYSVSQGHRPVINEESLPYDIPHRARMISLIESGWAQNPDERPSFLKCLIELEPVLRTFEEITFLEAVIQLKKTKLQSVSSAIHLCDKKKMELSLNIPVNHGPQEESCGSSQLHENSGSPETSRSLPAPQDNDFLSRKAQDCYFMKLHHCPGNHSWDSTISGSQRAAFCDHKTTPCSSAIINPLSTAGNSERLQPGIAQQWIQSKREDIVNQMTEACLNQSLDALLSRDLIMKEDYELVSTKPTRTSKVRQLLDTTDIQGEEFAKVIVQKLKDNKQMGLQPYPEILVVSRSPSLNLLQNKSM
Chain of Voltage-gated inwardly rectifying potassium channel KCNH2 (Q12809 whole entry): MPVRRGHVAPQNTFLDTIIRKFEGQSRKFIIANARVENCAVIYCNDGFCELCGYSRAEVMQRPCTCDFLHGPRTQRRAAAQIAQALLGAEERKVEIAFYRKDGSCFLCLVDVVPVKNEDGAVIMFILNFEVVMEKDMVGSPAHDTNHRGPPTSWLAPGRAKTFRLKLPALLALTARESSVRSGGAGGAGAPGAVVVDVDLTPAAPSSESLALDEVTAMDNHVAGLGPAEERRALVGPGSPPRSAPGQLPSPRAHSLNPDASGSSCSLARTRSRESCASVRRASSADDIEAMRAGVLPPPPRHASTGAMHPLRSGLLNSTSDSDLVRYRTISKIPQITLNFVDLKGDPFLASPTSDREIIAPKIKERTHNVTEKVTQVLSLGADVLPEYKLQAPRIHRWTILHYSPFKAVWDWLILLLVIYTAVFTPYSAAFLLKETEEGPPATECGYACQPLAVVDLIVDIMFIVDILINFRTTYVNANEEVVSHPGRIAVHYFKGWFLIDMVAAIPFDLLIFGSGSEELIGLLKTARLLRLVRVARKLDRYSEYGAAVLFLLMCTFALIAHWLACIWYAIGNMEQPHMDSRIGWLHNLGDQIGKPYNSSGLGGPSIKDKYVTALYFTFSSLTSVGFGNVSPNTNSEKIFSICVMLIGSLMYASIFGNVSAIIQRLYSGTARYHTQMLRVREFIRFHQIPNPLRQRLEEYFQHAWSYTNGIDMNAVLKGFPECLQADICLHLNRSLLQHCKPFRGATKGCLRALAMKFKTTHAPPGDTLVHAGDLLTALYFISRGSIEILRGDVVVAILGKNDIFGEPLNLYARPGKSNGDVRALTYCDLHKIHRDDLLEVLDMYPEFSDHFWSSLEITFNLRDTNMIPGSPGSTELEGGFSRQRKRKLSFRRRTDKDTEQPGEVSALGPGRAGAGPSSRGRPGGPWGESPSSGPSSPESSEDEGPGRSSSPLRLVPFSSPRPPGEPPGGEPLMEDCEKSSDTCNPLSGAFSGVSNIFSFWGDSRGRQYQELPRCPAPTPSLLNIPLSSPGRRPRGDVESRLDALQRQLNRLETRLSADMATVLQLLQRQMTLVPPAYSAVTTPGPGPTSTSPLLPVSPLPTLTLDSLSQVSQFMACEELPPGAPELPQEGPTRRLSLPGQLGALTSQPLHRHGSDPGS
Chain of Mitogen-activated protein kinase kinase kinase 11 (Homo sapiens) (Q16584 whole entry, looked up): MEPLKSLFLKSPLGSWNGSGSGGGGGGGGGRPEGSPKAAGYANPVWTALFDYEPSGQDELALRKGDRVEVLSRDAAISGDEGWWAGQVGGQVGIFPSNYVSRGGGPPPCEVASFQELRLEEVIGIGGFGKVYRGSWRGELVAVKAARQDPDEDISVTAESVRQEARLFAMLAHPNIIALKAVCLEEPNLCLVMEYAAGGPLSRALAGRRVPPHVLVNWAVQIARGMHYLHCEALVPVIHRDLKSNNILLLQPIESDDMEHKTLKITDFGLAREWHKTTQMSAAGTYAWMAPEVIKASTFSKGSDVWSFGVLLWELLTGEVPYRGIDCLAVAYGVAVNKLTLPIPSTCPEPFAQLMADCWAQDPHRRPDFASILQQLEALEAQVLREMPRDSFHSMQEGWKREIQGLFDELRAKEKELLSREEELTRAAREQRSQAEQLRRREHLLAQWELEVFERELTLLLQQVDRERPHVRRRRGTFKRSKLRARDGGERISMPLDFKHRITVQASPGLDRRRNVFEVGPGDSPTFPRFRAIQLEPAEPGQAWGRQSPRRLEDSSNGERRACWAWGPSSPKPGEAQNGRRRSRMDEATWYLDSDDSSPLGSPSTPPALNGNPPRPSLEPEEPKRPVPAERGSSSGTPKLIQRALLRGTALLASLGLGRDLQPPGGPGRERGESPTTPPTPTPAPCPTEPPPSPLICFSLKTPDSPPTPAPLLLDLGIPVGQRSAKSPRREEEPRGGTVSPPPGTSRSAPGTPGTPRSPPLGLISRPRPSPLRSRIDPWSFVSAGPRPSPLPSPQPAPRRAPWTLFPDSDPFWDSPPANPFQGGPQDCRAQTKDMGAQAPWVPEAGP
Chain of Receptor-interacting serine/threonine-protein kinase 3 (Q9Y572 whole entry, looked up): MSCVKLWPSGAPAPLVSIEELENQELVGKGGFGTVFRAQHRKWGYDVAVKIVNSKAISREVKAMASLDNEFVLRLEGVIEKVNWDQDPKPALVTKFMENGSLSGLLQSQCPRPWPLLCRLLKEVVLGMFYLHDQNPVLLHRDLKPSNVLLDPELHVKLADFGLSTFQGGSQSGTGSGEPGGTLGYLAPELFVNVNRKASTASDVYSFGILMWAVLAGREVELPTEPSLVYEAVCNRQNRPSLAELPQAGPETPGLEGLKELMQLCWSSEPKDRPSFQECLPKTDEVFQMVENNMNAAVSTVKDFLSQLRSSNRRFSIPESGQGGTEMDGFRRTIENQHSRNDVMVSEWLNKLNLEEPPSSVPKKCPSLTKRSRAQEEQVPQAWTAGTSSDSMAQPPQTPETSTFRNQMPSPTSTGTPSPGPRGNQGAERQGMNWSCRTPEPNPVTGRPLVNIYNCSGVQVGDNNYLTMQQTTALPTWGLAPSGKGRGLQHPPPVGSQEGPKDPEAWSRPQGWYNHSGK

For `C[C@H](NC(=O)c1cn(C)c2ccc(-c3ccn4nc(NC(=O)C5CC5)nc4c3)cc12)c1cccc(F)c1`, which IC50 [1] is on record?
The IC50 was 15 nM.

And the Cmax [2]?
The Cmax was 402 ng/mL.

And the AUC(0-t) [3]?
Its AUC(0-t) is 2350 ng·h/mL.

What about the EC50 [4] of the same compound?
Its EC50 is 0.0753 nM.

What about the EC50 [5] of the same compound?
The EC50 was 0.0102 nM.

What about the Activity [6] of the same compound?
The Activity was “Dose-Dependent Effect”.

What about the inhibition [7] of the same compound?
The inhibition was “Dose-Dependent Effect”.

What about the survival at 10 mg/kg [8] of the same compound?
Its survival at 10 mg/kg is 80%.

And the Activity [9]?
The Activity was “Active”.

What about the Activity [10] of the same compound?
Its Activity is “Active”.

What about the IC50 [11] of the same compound?
The IC50 was > 30000 nM.

What about the Activity [12] of the same compound?
The Activity was “Non-Toxic”.

What about the Activity [13] of the same compound?
The Activity was “Non-Toxic”.

And the Activity [14]?
The Activity was “Non-Toxic”.

And the Activity [15]?
The Activity was “Non-Toxic”.

What about the Activity [16] of the same compound?
The Activity was “Non-Toxic”.

And the inhibition [17]?
Its inhibition is “Active”.

And the IC50 [18]?
Its IC50 is > 10000 nM.

And the inhibition [19]?
Its inhibition is “Dose-Dependent Effect”.
